What is called IC50 is the midpoint of a concentration-inhibition curve. Broadly, the EC50 is the concentration needed to bring the measured effect to its halfway point.

Sequence of GR full length protein (glucocorticoid receptor) (P04150 whole entry): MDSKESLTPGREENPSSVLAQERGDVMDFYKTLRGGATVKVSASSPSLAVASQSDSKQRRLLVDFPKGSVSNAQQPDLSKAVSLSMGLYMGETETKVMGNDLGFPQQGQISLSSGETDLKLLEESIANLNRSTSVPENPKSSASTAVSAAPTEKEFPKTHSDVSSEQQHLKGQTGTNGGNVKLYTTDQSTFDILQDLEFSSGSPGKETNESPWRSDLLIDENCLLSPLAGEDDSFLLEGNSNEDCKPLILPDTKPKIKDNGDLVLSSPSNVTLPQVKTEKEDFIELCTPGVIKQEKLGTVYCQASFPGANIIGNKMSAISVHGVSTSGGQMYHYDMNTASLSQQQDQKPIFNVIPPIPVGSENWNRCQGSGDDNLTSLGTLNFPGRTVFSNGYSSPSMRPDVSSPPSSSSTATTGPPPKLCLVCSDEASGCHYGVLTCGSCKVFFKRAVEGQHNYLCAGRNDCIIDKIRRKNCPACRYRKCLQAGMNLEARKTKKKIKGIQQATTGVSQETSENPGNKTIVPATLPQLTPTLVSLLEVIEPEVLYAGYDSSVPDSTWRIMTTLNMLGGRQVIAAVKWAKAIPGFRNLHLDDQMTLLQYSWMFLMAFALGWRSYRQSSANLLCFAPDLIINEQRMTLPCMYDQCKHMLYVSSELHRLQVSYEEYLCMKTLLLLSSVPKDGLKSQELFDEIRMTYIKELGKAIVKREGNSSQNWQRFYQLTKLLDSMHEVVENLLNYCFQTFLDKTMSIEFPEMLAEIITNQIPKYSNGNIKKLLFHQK

The first series addresses GR full length protein (glucocorticoid receptor) (Homo sapiens (Human), UniProt P04150). The series is described as follows: PolarScreen Glucocorticoid Receptor Competitor Assay (GR binding). As to conditions: fluorescence polarisation competitor assay, 2-4 hours at room temperature; read-out: GR Bind IC50.
Protocol: The potency of binding to gucocorticoid receptor by small molecule compounds was measured with the PolarScreen™ Glucocorticoid Receptor Competitor Assay Kit, Red (Life Technology, Catalog #A15898) according to the procedure in the kit. In brief, after compounds were diluted and transferred into assay plates, the fluormone GS red and GR full length protein were subsequently added into the assay plates, along with the positive and negative controls. The samples were mixed on a shaker for 1 minute and then the plates were incubated at room temperature for 2-4 hours with minimal light exposure. The plates were read with an Envision and the relative fluorescent signals were calculated. The data were plotted in GraphPad Prism and the EC50 values were calculated with non-linear regression curve fit of the data in GraphPad Prism.
For the molecule `C[C@@H]1C[C@H]2[C@@H]3C[C@H](F)C4=CC(=O)C=C[C@]4(C)[C@@]3(F)[C@@H](O)C[C@]2(C)[C@@]1(OC(=O)CCCCCP(=O)(O)O)C(=O)SCF` [Compound 19, (6-(((6S,8S,9R,10S,11S,13S,14S,16R,17R)-6,9-difluoro-17-(((fluoromethyl)thio)carbonyl)-11-hydroxy-10,13,16-trimethyl-3-oxo-6,7,8,9,10,11,12,13,14,15,16,17-dodecahydro-3H-cyclopenta[a]phenanthren-17-yl)oxy)-6-oxohexyl)phosphonic acid], the IC50 was found to be 0.14 nM.

The test system of another series is MDCKII cells. Nature of the series: Apparent permeability in MDCKII cells. It counts as in vitro ADME. To be noted: Papp, average of A to B and B to A, 1 μM test compound, t=3 hr.
Protocol: Determination of apparent permeability was as follows. MDCKII cells (kindly provided by the Netherlands Cancer Institute, under a licensing agreement) were seeded on to 96-well transwell culture plates (Millipore Corp, Billerica, Mass.) and used in experiments after five days in culture. […] Substrate solution (150 μL) was added to either the apical (A) or the basolateral (B) compartment of the culture plate, and buffer (150 μL; HBSS, 10 mM HEPES, pH 7.4) with 10 μM cyclosporine A was added to the compartment opposite to that containing the substrate. At t=3 hr, 50 μL samples were removed from both sides of monolayers dosed with test compound and placed in 96 well plates, 50 μL internal standard (1 μM labetolol) and 100 μL HBSS was added to the samples. Samples were analyzed by LC/MS/MS using an Applied Biosystems SCIEX API 5000 triple quadruple mass spectrometer (Concord, ON, Canada) with a TurboIonSpray ion source in the positive ion mode. A Thermo Scientific Transcend LX-2 system (Franklin, Mass.) was coupled to the API 5000 with a flow rate of 800 μL/min to direct sample into the mass spectrometer.
Papp was expressed as 10-6 cm/s.
In the case of `CCCC1O[C@@H]2C[C@H]3[C@@H]4CCC5=CC(=O)C=C[C@]5(C)[C@H]4[C@@H](O)C[C@]3(C)[C@]2(C(=O)CO)O1` (stereo partly shown) [Budesonide, reference compound], the “MDCK Permeability (cm × 10-6/sec)” value is 31.6 cm × 10-6/sec.

In the case of `C[C@@H]1C[C@H]2[C@@H]3C[C@H](F)C4=CC(=O)C=C[C@]4(C)[C@@]3(F)[C@@H](O)C[C@]2(C)[C@@]1(O)C(=O)SCCCCCCP(=O)(O)O` [Compound 10], the “MDCK Permeability (cm × 10-6/sec)” value amounted to 1.9 cm × 10-6/sec. The same measure, in the same setting: under `CCC(=O)O[C@]1(C(=O)SCCCCCCP(=O)(O)O)[C@H](C)C[C@H]2[C@@H]3C[C@H](F)C4=CC(=O)C=C[C@]4(C)[C@@]3(F)[C@@H](O)C[C@@]21C` [Compound 7] stands 2 cm × 10-6/sec; under `CCC(=O)O[C@]1(C(=O)SCCCCCCCCCCP(=O)(O)O)[C@H](C)C[C@H]2[C@@H]3C[C@H](F)C4=CC(=O)C=C[C@]4(C)[C@@]3(F)[C@@H](O)C[C@@]21C` [Compound 3, (10-(((6S,8S,9R,10S,11S,13S,14S,16R,17R)-6,9-difluoro-11-hydroxy-10,13,16-trimethyl-3-oxo-17-(propionyloxy)-6,7,8,9,10,11,12,13,14,15,16,17-dodecahydro-3H-cyclopenta[a]phenanthrene-17-carbonyl)thio)decyl)phosphonic acid], 1.04 cm × 10-6/sec; under `C[C@@H]1C[C@H]2[C@@H]3C[C@H](F)C4=CC(=O)C=C[C@]4(C)[C@@]3(F)[C@@H](O)C[C@]2(C)[C@@]1(O)C(=O)SCCCCP(=O)(O)O` [Compound 5], 1.84 cm × 10-6/sec. Consider `CCC(=O)O[C@]1(C(=O)SCCCCP(=O)(O)O)[C@H](C)C[C@H]2[C@@H]3C[C@H](F)C4=CC(=O)C=C[C@]4(C)[C@@]3(F)[C@@H](O)C[C@@]21C` [Compound 4], for which the “MDCK Permeability (cm × 10-6/sec)” value was 1.72 cm × 10-6/sec. For the molecule `CCCC1O[C@@H]2C[C@H]3[C@@H]4CCC5=Cc6c(cnn6-c6ccc(OCCCCCCP(=O)(O)O)cc6)C[C@]5(C)[C@H]4[C@@H](O)C[C@]3(C)[C@]2(C(=O)CO)O1` (stereo partly shown) [Compound 31], the “MDCK Permeability (cm × 10-6/sec)” value is given as 4.1 cm × 10-6/sec. Same read-out and setting: under `CCCC1O[C@@H]2C[C@H]3[C@@H]4CCC5=Cc6c(cnn6-c6cccc(OCCCCP(=O)(O)O)c6)C[C@]5(C)[C@H]4[C@@H](O)C[C@]3(C)[C@]2(C(=O)CO)O1` (stereo partly shown) [Compound 28] stands 1.6 cm × 10-6/sec; under `CCC(=O)O[C@]1(C(=O)SCF)[C@H](C)C[C@H]2[C@@H]3C[C@H](F)C4=CC(=O)C=C[C@]4(C)[C@@]3(F)[C@@H](O)C[C@@]21C` [Fluticasone Propionate, reference compound], 21.5 cm × 10-6/sec.

For the molecule `C[C@@H]1C[C@H]2[C@@H]3C[C@H](F)C4=CC(=O)C=C[C@]4(C)[C@@]3(F)[C@@H](O)C[C@]2(C)[C@@]1(OC(=O)CCCCCCCCP(=O)(O)O)C(=O)SCF` [Compound 18, (9-(((6S,8S,9R,10S,11S,13S,14S,16R,17R)-6,9-difluoro-17-(((fluoromethyl)thio)carbonyl)-11-hydroxy-10,13,16-trimethyl-3-oxo-6,7,8,9,10,11,12,13,14,15,16,17-dodecahydro-3H-cyclopenta[a]phenanthren-17-yl)oxy)-9-oxononyl)phosphonic acid], the “MDCK Permeability (cm × 10-6/sec)” value is reported as less than 0.9 cm × 10-6/sec. In the case of `CCCC1O[C@@H]2C[C@H]3[C@@H]4CCC5=Cc6c(cnn6-c6ccc(OCCCCP(=O)(O)O)cc6)C[C@]5(C)[C@H]4[C@@H](O)C[C@]3(C)[C@]2(C(=O)CO)O1` (stereo partly shown) [Compound 30], the “MDCK Permeability (cm × 10-6/sec)” value is given as 1.9 cm × 10-6/sec. Still for that read-out and setting: under `C[C@@H]1C[C@H]2[C@@H]3C[C@H](F)C4=CC(=O)C=C[C@]4(C)[C@@]3(F)[C@@H](O)C[C@]2(C)[C@@]1(O)C(=O)SCCCCCCCCCCP(=O)(O)O` [Compound 8] stands 2.8 cm × 10-6/sec.

For another series, the system named is GILZ gene. The series is described as follows: GILZ gene assay (qPCR, HUT78 / 786-O cells). In kind it is cell-based. To be noted: at 10 uM. Background: Real-time PCR tracks product formation cycle by cycle.
Protocol: GILZ gene assays were conducted as follows. HUT78 cells were cultured in IMEM plus 20% heat inactivated FBS and cell density was maintained between 0.1 to 1.2 million/mL. 786-O cells were cultured in RPMI plus 10% heat inactivated FBS. Actively growing cells were harvested and resuspended in HBSS with 2% FBS at 1.1 million cells per mL then dispensed to 384-well V-bottom plates at 45 μL per well. Serially diluted ADC solution was added to the cell plate (5 μL per well) and mixed for 2 min. Cells were then cultured at 37° C., at 5% CO2 for a designated time before supernatant was removed. Cells were harvested in lysis buffer from the Cells-to-Ct kit (40 μL, Life Technologies, 4391851C) following the supplier's protocol and mixed for 10 min followed by addition of 5 μL per well of stop solution from the kit. cDNA was synthesized with a reverse transcription kit (Life Technologies, 4391852C) follow by qPCR using the TaqMan gene expression master mix (Life Technologies, 4369016) with GILZ gene assay (Life Technologies, Hs00608272_m1) and GAPDH assay (Hs2758991_g1) in a duplex format with 3-4 technical replicates.
In the case of “(6-(3-((3aR,4aS,4bS,11aR,11bS,12S,13aS,13bS)-12-hydroxy-13b-(2-hydroxyacetyl)-11a,13a-dimethyl-2-propyl-4,4a,5,6,11,11a,11b,12,13,13a-decahydro-[1,3]dioxolo[4″,5″:3′,4′]cyclopenta[1′,2′:5,6]naphtho[,2-f]indazol-8(3aH,4bH,13bH)-yl)phenoxy)hexyl)phosphonic acid [Compound 27]”, the “GILZ Max” value was 80% (at.

The same series, now with this note: read-out: GILZ EC50.
Turning to `C[C@@H]1C[C@H]2[C@@H]3C[C@H](F)C4=CC(=O)C=C[C@]4(C)[C@@]3(F)[C@@H](O)C[C@]2(C)[C@@]1(OC(=O)CCCCCP(=O)(O)O)C(=O)SCF` [Compound 19, (6-(((6S,8S,9R,10S,11S,13S,14S,16R,17R)-6,9-difluoro-17-(((fluoromethyl)thio)carbonyl)-11-hydroxy-10,13,16-trimethyl-3-oxo-6,7,8,9,10,11,12,13,14,15,16,17-dodecahydro-3H-cyclopenta[a]phenanthren-17-yl)oxy)-6-oxohexyl)phosphonic acid], the EC50 amounted to 1290 nM.

Take “(6-(3-((3aR,4aS,4bS,11aR,11bS,12S,13aS,13bS)-12-hydroxy-13b-(2-hydroxyacetyl)-11a,13a-dimethyl-2-propyl-4,4a,5,6,11,11a,11b,12,13,13a-decahydro-[1,3]dioxolo[4″,5″:3′,4′]cyclopenta[1′,2′:5,6]naphtho[,2-f]indazol-8(3aH,4bH,13bH)-yl)phenoxy)hexyl)phosphonic acid [Compound 27]”: the EC50 is 2760 nM.
